Reference: patent US8604192B2, “Cyclohexenyl nucleic acids analogs” (Isis Pharmaceuticals, Inc., priority 2008, dated 2013)

Key:
PTEN = assay: 3-10-3 gapped oligomeric compounds targeted to PTEN: in vivo study, liver mRNA levels by real-time PCR; set-up: species or system Balb/c mice; settings: estimated ED50 for liver PTEN mRNA reduction (% UTC); single dose of 3.2, 10, 32 and 100 mg/kg; sacrificed 48 hours after administration; calculated using Graphpad Prism
Excerpt: Quantitation of target mRNA levels is accomplished by real-time quantitative PCR using the ABI PRISM™ 7600, 7700, or 7900 Sequence Detection System (PE-Applied Biosystems, Foster City, Calif.) according to manufacturer's instructions. This is a closed-tube, non-gel-based, fluorescence detection system which allows high-throughput quantitation of polymerase chain reaction (PCR) products in real-time. As opposed to standard PCR in which amplification products are quantitated after the PCR is completed, products in real-time quantitative PCR are quantitated as they accumulate. […] With each cycle, additional reporter dye molecules are cleaved from their respective probes, and the fluorescence intensity is monitored at regular intervals by laser optics built into the ABI PRISM™ Sequence Detection System. In each assay, a series of parallel reactions containing serial dilutions of mRNA from untreated control samples generates a standard curve that is used to quantitate the percent inhibition after antisense oligonucleotide treatment of test samples.
Prior to quantitative PCR analysis, primer-probe sets specific to the target gene being measured are evaluated for their ability to be “multiplexed” with a GAPDH amplification reaction. […]

[1] = test system: complementary RNA (20-mer RNA); assay: Tm of gapped oligomeric compound with complementary RNA; format: binding; settings: 100 mM phosphate buffer, 0.1 mM EDTA, pH 7, 260 nm, 4 μM oligomeric compound and 4 μM complementary RNA
Procedure: (§1) Six week old Balb/c mice (Jackson Laboratory, Bar Harbor, Me.) were injected with a single dose of ASOs 464846 and 464847 targeted to PTEN at a dose of 3.2, 10, 32 and 100 mg/kg. The mice were sacrificed 48 hours following the last administration. Liver tissues were homogenized and mRNA levels were quantitated using real-time PCR using procedures illustrated herein for comparison to untreated control levels (% UTC). Plasma chemistry analysis was also completed. Tms were determined in 100 mM phosphate buffer, 0.1 mM EDTA, pH 7, at 260 nm using 4 μM of the gapped oligomeric compounds listed below and 4 μM of the complementary RNA.

[2] = Liver transaminase levels (ALT) in serum, plasma chemistry analysis; format: in vivo, Balb/c mice; settings: approximate serum level, mice, 48 hours; for ALT @ 3.2 mg/kg: single dose 3.2 mg/kg; for ALT @ 10 mg/kg: single dose 10 mg/kg; for ALT @ 32 mg/kg: single dose 32 mg/kg; for ALT @ 100 mg/kg: single dose 100 mg/kg
Procedure: as §1
Liver transaminase levels, alanine aminotranferease (ALT) and aspartate aminotransferase (AST), in serum were also measured relative to saline injected mice.

Row | Substance | ED50 (PTEN) [mg/kg] | Tm (° C.) vs. 20-mer RNA [1] [°C] | ALT @ 3.2 mg/kg [2] | ALT @ 10 mg/kg [2] | ALT @ 32 mg/kg [2] | ALT @ 100 mg/kg [2]
1 | Te^mCeTeTAG^mCA^mCTGGC^mCeTeTe (DNA TCTTAGCACTGGCCTT; all phosphorothioate, sugars by position and methylation of C not given here; 3-10-3 gapmer, wing nucleosides defined elsewhere, some cytosines 5-methylated) [05/464846] | 91 | 62.35 | 38 | 25 | 22 | 22
2 | Tf^mCfTfTAG^mCA^mCTGGC^mCfTfTf (DNA TCTTAGCACTGGCCTT; all phosphorothioate, sugars by position and methylation of C not given here; wing nucleosides modified (marked e), some C 5-methyl) [05/464847] | 22 | 64.37 | 24 | 23 | 24 | 284
